Assays:
rat spleen cell cultures = test: In vivo exposure to HgCl2, then ELISPOT of Con A-stimulated spleen cell cultures; settings: for reduction in the ratio of IFN-γ pc/IL-4 pc: day 3 after first HgCl2 injection
Procedure: (§1) Female BN and Lewis rats at 8 to 12 weeks of age were used in all experiments. Animals were obtained from Harlan CPB (Zeist, The Netherlands) and housed in the animal care facility of our institute and maintained on standard laboratory chow and water ad libitum. For some experiments, rats were injected twice with 1 mg HgCl2/kg body weight by the intraperitoneal route with an interval of 48 h. Four repeated i.p. injections with this dose of HgCl2 at 48 h intervals induce a TH2-biased autoimmune syndrome in BN but not Lewis rats that becomes clinically evident (massive proteinuria) approximately 13 days after the first injection with HgCl2 (16).
The aseptically removed spleen was gently crushed with the blunt end of a 5-ml syringe plunger and passaged through a fine mesh nylon screen. Erythrocytes were hemolysed by adding cold sterile water for 20 sec. to cell pellets followed by the addition of half the volume of 2.7% saline. The number of cells was determined by use of Türk's solution and cell viability by means of trypan blue exclusion. Cell suspensions in which the viability was less than 85% were excluded from the studies. Splenocytes were washed twice with CM5, adjusted to 4 x 10^6 cells/ml, transferred to a 24-well culture plate (1.0 ml/well) and stimulated with Con A (5 µg/ml) in the presence or absence of various supplements (as indicated in the text) for 40 h at 37°C in a humidified atmosphere containing 5% CO2. Thereafter, non-adherent cells were collected and subjected to ELISPOT analyses as described below.
The ELISPOT assay for detecting single cytokine secreting cells has been detailed previously (17). Briefly, the wells of PVC microplates were coated with monoclonal antibodies specific for rat IFN-γ or rat IL-4. After washing and postcoating, 100 µl suspensions of Con A-activated splenocytes were pipetted into the wells. The cells were allowed the produce cytokines for either 4 h (IFN-γ pc) or 16 h (IL-4 pc). Thereafter, cells were lysed for 10 minutes with ice-cold distilled water. Subsequently, the wells were thoroughly washed with PBS containing 0.05% Tween-20. Spots were detected by the sequential incubation of biotinylated rabbit anti-cytokine antibodies and goat anti-biotin antibodies conjugated to alkaline phosphatase (AP). The AP substrate 5-bromo-4-chloro-3-indolyl phosphate was used to produce blue zones ('spots') that visualised the positions of the individual spot-forming cells (SFC). SFC were enumerated by image analysis using a stereo microscope coupled to a colour video camera and Micro Image software from Olympus Optical Co. The frequency of spontaneously occurring SFC was always less than 1% of the mitogen-induced frequency.
Spleens were isolated from rats at 24 h after the second intraperitoneal injection with saline or HgCl2 (1 mg/kg b.w.). Spleen cells were stimulated with Con A (5 µg/ml) in the presence of 2 mM GSH. The experiments were performed at three independent occasions with similar results. At each occasion the ELISPOT analyses were performed in quadruplicate. One representative experiment is presented. Both reduction of IFN-γ pc and enhancement of IL-4 pc (BN splenocytes only) as a result of in vivo exposure to HgCl2 reached in all analyses statistical significance (p < 0.01).

splenocytes = test: Superoxide anion release by splenocytes after in vivo HgCl2; set-up: species or system rat
Procedure: as §1
The pMØ monolayers were incubated for 20 h at 37°C in CM10 and subsequently washed (twice) with Hanks' balanced salt solution (HBSS) without phenol red. Thereafter, the cells were treated with PMA and assayed for ^·O2^- production by measuring the rate of SOD-inhibitable ferricytochrome C reduction (20, 21). To that purpose the macrophage monolayer was incubated for 1 h at 37°C with an 1.0 ml reaction mixture containing 100 µM ferricytochrome C in HBSS with or without PMA (100 ng/ml). […] Each test was run in duplicate and the absorption increase at 550 nm was measured using a Beckmann DU-5 spectrophotometer. ^·O2^- release by splenocytes was determined after Con A activation of 4 x 10^6 cells for 20 h. […]

[1] = BN, HgCl2 in vivo, no culture supplement, Con A + 2 mM GSH (Table 4)
[2] = BN, HgCl2 in vivo, no culture supplement, Con A + 2 mM GSH (Table 6)
[3] = BN, HgCl2 1 mg/kg b.w. i.p. twice, spleens 24 h after second injection, Con A 5 µg/ml + 2 mM GSH
[4] = Lewis, HgCl2 in vivo, no culture supplement, Con A + 2 mM GSH (Table 4)
[5] = Lewis, HgCl2 in vivo, no culture supplement, Con A + 2 mM GSH (Table 6)
[6] = Lewis, HgCl2 1 mg/kg b.w. i.p. twice, spleens 24 h after second injection, Con A 5 µg/ml + 2 mM GSH

[Cl][Hg][Cl] [HgCl2, mercuric chloride]
reduction in the ratio of IFN-γ pc/IL-4 pc (rat spleen cell cultures; BN splenocyte cultures): ~6 fold
IFN-γ pc per 1x10^4 MNC (rat spleen cell cultures; [1]): 30 ± 8 per 1 x 10^4 MNC
IL-4 pc per 2x10^5 MNC (rat spleen cell cultures; [1]): 88 ± 14 per 2 x 10^5 MNC
ratio IFN-γ pc/IL-4 pc (rat spleen cell cultures; [1]): 6.8
IFN-γ pc per 1x10^4 MNC (rat spleen cell cultures; [2]): 35 ± 8 per 1x10^4 MNC
IL-4 pc per 2x10^5 MNC (rat spleen cell cultures; [2]): 87 ± 14 per 2x10^5 MNC
ratio pc IFN-γ/IL-4 (rat spleen cell cultures; [2]): 8
IFN-γ pc per 1x10^4 MNC (rat spleen cell cultures; [3]): 34 ± 8 per 1 x 10^4 MNC
IL-4 pc per 2x10^5 MNC (rat spleen cell cultures; [3]): 101 ± 12 per 2 x 10^5 MNC
ratio IFN-γ pc/IL-4 pc (rat spleen cell cultures; [3]): 6.7
reduction in the ratio of IFN-γ pc/IL-4 pc (rat spleen cell cultures; Lewis splenocyte cultures): ~2 fold
IFN-γ pc per 1x10^4 MNC (rat spleen cell cultures; [4]): 104 ± 1 per 1 x 10^4 MNC
IL-4 pc per 2x10^5 MNC (rat spleen cell cultures; [4]): 11 ± 3 per 2 x 10^5 MNC
ratio IFN-γ pc/IL-4 pc (rat spleen cell cultures; [4]): 189
IFN-γ pc per 1x10^4 MNC (rat spleen cell cultures; [5]): 104 ± 11 per 1x10^4 MNC
IL-4 pc per 2x10^5 MNC (rat spleen cell cultures; [5]): 13 ± 3 per 2x10^5 MNC
ratio pc IFN-γ/IL-4 (rat spleen cell cultures; [5]): 160
IFN-γ pc per 1x10^4 MNC (rat spleen cell cultures; [6]): 103 ± 9 per 1 x 10^4 MNC
IL-4 pc per 2x10^5 MNC (rat spleen cell cultures; [6]): 12 ± 7 per 2 x 10^5 MNC
ratio IFN-γ pc/IL-4 pc (rat spleen cell cultures; [6]): 172
^·O2^- levels (splenocytes): below the detection limit

Source: EP1013272A1, “Manipulation of the activity of a nitric oxide radical production pathway for the treatment of diseases associated with the presence of oxygen free radicals” (Biomedical Primate Research Centre (BPRC), priority 1998, dated 2000)
